Assays:
[1] = target: RAC-gamma serine/threonine-protein kinase (Homo sapiens) (UniProt Q9Y243); assay: Inhibition of AKT3 (unknown origin) at 1 uM by mobility shift microfluidics platform based assay relative to control
[2] = target: Protein-tyrosine kinase 6 (Homo sapiens) (UniProt Q13882); assay: Inhibition of BRK (unknown origin) at 1 uM by mobility shift microfluidics platform based assay relative to control
[3] = target: Tyrosine-protein kinase BTK (Homo sapiens) (UniProt Q06187); assay: Inhibition of BTK (unknown origin) at 1 uM by mobility shift microfluidics platform based assay relative to control
[4] = target: Calcium/calmodulin-dependent protein kinase type 1D (Homo sapiens) (UniProt Q8IU85); assay: Inhibition of CAMK1D (unknown origin) at 1 uM by mobility shift microfluidics platform based assay relative to control
[5] = organism: Homo sapiens; assay: Inhibition of CDK/Cyclin E (unknown origin) at 1 uM by mobility shift microfluidics platform based assay relative to control
[6] = target: Casein kinase I isoform epsilon (Homo sapiens) (UniProt P49674); assay: Inhibition of CK1-epsilon (unknown origin) at 1 uM by mobility shift microfluidics platform based assay relative to control
[7] = target: Dual specificity protein kinase CLK1 (Homo sapiens) (UniProt P49759); assay: Inhibition of CLK1 (unknown origin) at 1 uM by mobility shift microfluidics platform based assay relative to control
[8] = target: Tyrosine-protein kinase CSK (Homo sapiens) (UniProt P41240); assay: Inhibition of CSK (unknown origin) at 1 uM by mobility shift microfluidics platform based assay relative to control
[9] = target: Death-associated protein kinase 1 (Homo sapiens) (UniProt P53355); assay: Inhibition of DAPK1 (unknown origin) at 1 uM by mobility shift microfluidics platform based assay relative to control
[10] = target: Ephrin type-A receptor 1 (Homo sapiens) (UniProt P21709); assay: Inhibition of EPH-A1 (unknown origin) at 1 uM by mobility shift microfluidics platform based assay relative to control
[11] = target: Inhibitor of nuclear factor kappa-B kinase subunit beta (Homo sapiens) (UniProt O14920); assay: Inhibition of IKK-beta (unknown origin) at 1 uM by mobility shift microfluidics platform based assay relative to control
[12] = target: Vascular endothelial growth factor receptor 2 (Homo sapiens) (UniProt P35968); assay: Inhibition of KDR (unknown origin) at 1 uM by mobility shift microfluidics platform based assay relative to control
[13] = target: Mast/stem cell growth factor receptor Kit (Homo sapiens) (UniProt P10721); assay: Inhibition of KIT (unknown origin) at 1 uM by mobility shift microfluidics platform based assay relative to control
[14] = target: Mitogen-activated protein kinase 1 (Homo sapiens) (UniProt P28482); assay: Inhibition of MAPK1 (unknown origin) at 1 uM by mobility shift microfluidics platform based assay relative to control
[15] = target: Mitogen-activated protein kinase 3 (Homo sapiens) (UniProt P27361); assay: Inhibition of MAPK3 (unknown origin) at 1 uM by mobility shift microfluidics platform based assay relative to control
[16] = target: MAP/microtubule affinity-regulating kinase 4 (Homo sapiens) (UniProt Q96L34); assay: Inhibition of MARK4 (unknown origin) at 1 uM by mobility shift microfluidics platform based assay relative to control
[17] = target: Dual specificity mitogen-activated protein kinase kinase 1 (Homo sapiens) (UniProt Q02750); assay: Inhibition of MEK1 (unknown origin) at 1 uM by mobility shift microfluidics platform based assay relative to control
[18] = target: Serine/threonine-protein kinase 3 (Homo sapiens) (UniProt Q13188); assay: Inhibition of MST2 (unknown origin) at 1 uM by mobility shift microfluidics platform based assay relative to control
[19] = target: Serine/threonine-protein kinase 26 (Homo sapiens) (UniProt Q9P289); assay: Inhibition of MST4 (unknown origin) at 1 uM by mobility shift microfluidics platform based assay relative to control
[20] = target: Serine/threonine-protein kinase Nek7 (Homo sapiens) (UniProt Q8TDX7); assay: Inhibition of NEK7 (unknown origin) at 1 uM by mobility shift microfluidics platform based assay relative to control
[21] = target: Serine/threonine-protein kinase MARK2 (Homo sapiens) (UniProt Q7KZI7); assay: Inhibition of PAR-1B-alpha (unknown origin) at 1 uM by mobility shift microfluidics platform based assay relative to control
[22] = target: 3-phosphoinositide-dependent protein kinase 1 (Homo sapiens) (UniProt O15530); assay: Inhibition of PDK1 (unknown origin) at 1 uM by mobility shift microfluidics platform based assay relative to control
[23] = target: Serine/threonine-protein kinase pim-2 (Homo sapiens) (UniProt Q9P1W9); assay: Inhibition of PIM2 (unknown origin) at 1 uM by mobility shift microfluidics platform based assay relative to control
[24] = target: Protein kinase C beta type (Homo sapiens) (UniProt P05771); assay: Inhibition of PKC-beta1 (unknown origin) at 1 uM by mobility shift microfluidics platform based assay relative to control
[25] = target: Protein kinase C zeta type (Homo sapiens) (UniProt Q05513); assay: Inhibition of PKC-zeta (unknown origin) at 1 uM by mobility shift microfluidics platform based assay relative to control
[26] = target: Serine/threonine-protein kinase PLK1 (Homo sapiens) (UniProt P53350); assay: Inhibition of PLK1 (unknown origin) at 1 uM by mobility shift microfluidics platform based assay relative to control
[27] = target: cGMP-dependent protein kinase 1 (Homo sapiens) (UniProt Q13976); assay: Inhibition of PRKG1 (unknown origin) at 1 uM by mobility shift microfluidics platform based assay relative to control
[28] = target: cAMP-dependent protein kinase catalytic subunit PRKX (Homo sapiens) (UniProt P51817); assay: Inhibition of PRKX (unknown origin) at 1 uM by mobility shift microfluidics platform based assay relative to control
[29] = target: Protein-tyrosine kinase 2-beta (Homo sapiens) (UniProt Q14289); assay: Inhibition of PYK2 (unknown origin) at 1 uM by mobility shift microfluidics platform based assay relative to control
[30] = target: Ribosomal protein S6 kinase alpha-6 (Homo sapiens) (UniProt Q9UK32); assay: Inhibition of RSK4 (unknown origin) at 1 uM by mobility shift microfluidics platform based assay relative to control
[31] = target: Dual specificity protein kinase TTK (Homo sapiens) (UniProt P33981); assay: Inhibition of TTK (unknown origin) at 1 uM by mobility shift microfluidics platform based assay relative to control
[32] = target: Tyrosine-protein kinase TXK (Homo sapiens) (UniProt P42681); assay: Inhibition of TXK (unknown origin) at 1 uM by mobility shift microfluidics platform based assay relative to control
[33] = target: Non-receptor tyrosine-protein kinase TYK2 (Homo sapiens) (UniProt P29597); assay: Inhibition of TYK2 (unknown origin) at 1 uM by mobility shift microfluidics platform based assay relative to control
[34] = target: Serine/threonine-protein kinase PLK4 (Homo sapiens) (UniProt O00444); assay: Inhibition of PLK4 (unknown origin) at 1 uM by mobility shift microfluidics platform based assay relative to control

Sequence of Mitogen-activated protein kinase 1 (Homo sapiens) (P28482 whole entry): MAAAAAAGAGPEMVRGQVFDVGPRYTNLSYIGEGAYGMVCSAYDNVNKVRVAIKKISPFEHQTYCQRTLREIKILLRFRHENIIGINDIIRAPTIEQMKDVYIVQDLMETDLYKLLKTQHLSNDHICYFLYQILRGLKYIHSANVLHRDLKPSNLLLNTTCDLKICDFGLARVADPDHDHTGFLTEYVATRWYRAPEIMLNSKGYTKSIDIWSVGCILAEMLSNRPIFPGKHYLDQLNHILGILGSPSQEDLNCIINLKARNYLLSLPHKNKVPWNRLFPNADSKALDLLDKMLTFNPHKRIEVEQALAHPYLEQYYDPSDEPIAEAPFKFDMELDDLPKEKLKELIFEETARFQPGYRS
Sequence of Calcium/calmodulin-dependent protein kinase type 1D (Homo sapiens) (Q8IU85 whole entry, looked up): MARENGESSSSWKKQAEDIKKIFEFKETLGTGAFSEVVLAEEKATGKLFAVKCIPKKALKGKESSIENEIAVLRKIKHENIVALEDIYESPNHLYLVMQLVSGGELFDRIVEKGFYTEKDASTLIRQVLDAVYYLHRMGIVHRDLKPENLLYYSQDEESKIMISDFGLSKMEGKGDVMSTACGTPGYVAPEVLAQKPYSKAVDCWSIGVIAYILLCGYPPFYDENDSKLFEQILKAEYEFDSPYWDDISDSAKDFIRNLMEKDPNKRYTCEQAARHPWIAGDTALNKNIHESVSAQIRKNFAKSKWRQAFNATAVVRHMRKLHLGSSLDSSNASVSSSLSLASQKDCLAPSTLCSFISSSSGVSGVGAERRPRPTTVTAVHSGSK
Sequence of Serine/threonine-protein kinase MARK2 (Homo sapiens) (Q7KZI7 whole entry): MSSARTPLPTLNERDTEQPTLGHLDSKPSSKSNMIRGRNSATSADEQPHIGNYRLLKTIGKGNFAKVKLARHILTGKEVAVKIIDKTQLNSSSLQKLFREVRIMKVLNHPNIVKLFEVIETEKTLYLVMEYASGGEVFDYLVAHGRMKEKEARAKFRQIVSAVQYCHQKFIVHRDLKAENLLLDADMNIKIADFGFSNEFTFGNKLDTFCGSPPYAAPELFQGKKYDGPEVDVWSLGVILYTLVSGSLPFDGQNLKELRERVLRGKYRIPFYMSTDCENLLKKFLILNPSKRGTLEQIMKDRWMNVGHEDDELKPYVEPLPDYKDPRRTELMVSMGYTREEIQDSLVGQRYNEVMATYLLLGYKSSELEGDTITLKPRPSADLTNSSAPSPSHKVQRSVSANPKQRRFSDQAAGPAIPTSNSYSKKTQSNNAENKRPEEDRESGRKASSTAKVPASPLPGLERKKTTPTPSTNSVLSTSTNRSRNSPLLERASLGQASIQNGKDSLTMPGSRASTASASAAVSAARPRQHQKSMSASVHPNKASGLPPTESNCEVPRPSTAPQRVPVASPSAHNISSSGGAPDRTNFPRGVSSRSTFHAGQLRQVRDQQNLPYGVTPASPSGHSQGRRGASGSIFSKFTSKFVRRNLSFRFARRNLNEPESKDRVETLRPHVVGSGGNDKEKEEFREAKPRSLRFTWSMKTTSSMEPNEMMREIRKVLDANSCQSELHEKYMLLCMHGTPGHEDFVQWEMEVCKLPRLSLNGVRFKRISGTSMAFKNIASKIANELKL
Sequence of Dual specificity protein kinase TTK (Homo sapiens) (P33981 whole entry): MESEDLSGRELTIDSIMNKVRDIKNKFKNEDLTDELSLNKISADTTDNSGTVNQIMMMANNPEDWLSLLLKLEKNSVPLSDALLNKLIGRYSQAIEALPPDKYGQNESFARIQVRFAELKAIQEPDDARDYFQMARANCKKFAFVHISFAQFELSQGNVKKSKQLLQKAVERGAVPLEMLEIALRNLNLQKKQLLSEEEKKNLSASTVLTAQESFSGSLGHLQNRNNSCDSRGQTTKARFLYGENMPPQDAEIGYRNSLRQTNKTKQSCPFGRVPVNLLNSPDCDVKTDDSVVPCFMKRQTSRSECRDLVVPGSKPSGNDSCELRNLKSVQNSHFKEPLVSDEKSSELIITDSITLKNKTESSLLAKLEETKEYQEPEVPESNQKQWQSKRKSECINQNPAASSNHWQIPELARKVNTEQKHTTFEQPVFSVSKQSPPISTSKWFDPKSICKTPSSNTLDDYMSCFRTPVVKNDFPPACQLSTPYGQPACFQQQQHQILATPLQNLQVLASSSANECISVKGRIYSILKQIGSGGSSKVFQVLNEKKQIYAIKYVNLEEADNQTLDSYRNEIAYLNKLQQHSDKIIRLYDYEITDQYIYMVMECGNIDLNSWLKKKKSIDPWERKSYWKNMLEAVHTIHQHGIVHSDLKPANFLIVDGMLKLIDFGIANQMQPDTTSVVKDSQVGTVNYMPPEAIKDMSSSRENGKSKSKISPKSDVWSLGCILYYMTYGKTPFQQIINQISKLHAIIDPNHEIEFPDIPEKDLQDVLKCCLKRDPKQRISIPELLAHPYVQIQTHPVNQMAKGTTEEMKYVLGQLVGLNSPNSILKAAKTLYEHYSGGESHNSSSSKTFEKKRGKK
Sequence of Serine/threonine-protein kinase 26 (Homo sapiens) (Q9P289 2-416 limits assumed): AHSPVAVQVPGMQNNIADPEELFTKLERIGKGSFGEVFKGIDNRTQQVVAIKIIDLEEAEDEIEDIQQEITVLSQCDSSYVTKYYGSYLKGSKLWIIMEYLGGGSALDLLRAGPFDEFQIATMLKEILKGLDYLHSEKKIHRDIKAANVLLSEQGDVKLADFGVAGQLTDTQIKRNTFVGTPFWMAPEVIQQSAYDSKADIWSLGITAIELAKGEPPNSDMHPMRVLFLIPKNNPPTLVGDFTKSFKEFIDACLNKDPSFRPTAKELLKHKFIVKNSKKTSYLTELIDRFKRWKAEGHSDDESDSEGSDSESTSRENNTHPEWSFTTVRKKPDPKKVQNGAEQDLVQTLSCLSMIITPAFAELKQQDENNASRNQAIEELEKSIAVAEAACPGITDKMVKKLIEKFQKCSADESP
Sequence of Dual specificity protein kinase CLK1 (Homo sapiens) (P49759 whole entry, looked up): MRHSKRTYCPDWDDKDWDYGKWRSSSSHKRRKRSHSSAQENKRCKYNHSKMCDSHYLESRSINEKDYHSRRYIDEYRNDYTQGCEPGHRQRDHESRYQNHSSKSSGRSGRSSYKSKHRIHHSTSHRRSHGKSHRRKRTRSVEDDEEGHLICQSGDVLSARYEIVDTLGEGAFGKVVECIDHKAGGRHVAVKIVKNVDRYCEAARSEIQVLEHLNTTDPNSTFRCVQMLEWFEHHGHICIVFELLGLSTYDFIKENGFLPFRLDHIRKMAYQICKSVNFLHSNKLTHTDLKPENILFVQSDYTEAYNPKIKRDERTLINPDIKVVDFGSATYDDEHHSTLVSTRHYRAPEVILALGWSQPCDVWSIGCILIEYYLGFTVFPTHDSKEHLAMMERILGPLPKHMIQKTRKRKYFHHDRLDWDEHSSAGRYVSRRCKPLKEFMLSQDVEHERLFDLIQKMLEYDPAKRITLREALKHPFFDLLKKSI
Sequence of 3-phosphoinositide-dependent protein kinase 1 (Homo sapiens) (O15530 whole entry): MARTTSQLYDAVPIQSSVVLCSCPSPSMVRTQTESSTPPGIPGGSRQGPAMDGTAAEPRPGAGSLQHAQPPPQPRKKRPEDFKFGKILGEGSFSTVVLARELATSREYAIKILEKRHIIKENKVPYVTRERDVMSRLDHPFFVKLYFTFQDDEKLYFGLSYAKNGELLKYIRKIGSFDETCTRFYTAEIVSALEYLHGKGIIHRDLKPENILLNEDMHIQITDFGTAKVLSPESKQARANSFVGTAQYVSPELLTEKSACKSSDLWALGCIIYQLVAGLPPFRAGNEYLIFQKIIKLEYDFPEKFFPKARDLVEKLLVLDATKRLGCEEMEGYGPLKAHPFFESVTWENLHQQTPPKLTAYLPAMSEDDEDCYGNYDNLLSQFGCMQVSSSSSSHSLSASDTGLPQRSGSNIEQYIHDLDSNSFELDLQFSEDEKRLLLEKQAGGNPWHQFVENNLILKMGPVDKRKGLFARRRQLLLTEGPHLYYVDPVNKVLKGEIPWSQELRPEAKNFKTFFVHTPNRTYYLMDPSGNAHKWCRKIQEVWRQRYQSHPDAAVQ
Sequence of Ephrin type-A receptor 1 (Homo sapiens) (P21709 whole entry): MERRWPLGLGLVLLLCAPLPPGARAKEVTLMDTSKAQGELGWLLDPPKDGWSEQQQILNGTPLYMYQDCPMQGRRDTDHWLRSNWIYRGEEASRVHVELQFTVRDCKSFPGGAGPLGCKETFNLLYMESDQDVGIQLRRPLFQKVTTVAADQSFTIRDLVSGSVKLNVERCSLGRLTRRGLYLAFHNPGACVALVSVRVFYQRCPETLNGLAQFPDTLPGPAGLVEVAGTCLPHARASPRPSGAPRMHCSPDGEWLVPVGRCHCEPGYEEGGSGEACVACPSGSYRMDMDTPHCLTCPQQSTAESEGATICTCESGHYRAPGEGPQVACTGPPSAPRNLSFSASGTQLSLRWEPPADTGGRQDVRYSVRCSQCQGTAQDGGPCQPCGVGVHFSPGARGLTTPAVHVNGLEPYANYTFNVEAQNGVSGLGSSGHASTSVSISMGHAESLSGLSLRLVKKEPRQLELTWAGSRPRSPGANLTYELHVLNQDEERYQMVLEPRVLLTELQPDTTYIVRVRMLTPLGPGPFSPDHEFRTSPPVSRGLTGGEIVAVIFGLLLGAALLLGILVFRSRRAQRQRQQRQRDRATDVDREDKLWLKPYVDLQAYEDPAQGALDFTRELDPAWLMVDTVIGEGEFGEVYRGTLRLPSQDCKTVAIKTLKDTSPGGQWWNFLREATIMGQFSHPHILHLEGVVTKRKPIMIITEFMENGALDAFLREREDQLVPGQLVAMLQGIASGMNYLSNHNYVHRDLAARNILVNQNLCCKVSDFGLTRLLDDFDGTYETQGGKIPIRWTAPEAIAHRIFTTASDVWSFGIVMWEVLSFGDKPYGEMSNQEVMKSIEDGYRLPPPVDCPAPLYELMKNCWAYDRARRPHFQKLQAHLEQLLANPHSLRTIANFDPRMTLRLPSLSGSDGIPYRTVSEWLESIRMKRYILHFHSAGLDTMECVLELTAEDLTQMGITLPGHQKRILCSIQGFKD

Compound | inhibition [1] [%] | inhibition [2] [%] | inhibition [3] [%] | inhibition [4] [%] | inhibition [5] [%] | inhibition [6] [%] | inhibition [7] [%] | inhibition [8] [%] | inhibition [9] [%] | inhibition [10] [%] | inhibition [11] [%] | inhibition [12] [%] | inhibition [13] [%] | inhibition [14] [%] | inhibition [15] [%] | inhibition [16] [%] | inhibition [17] [%] | inhibition [18] [%] | inhibition [19] [%] | inhibition [20] [%] | also measured
CC(C)n1nc(C#Cc2cccc(NC(=O)c3cccc(C(F)(F)F)c3)c2)c2c(N)ncnc21 | 2 | 97 | 71 | 7 | 1 to 3 | 27 | 2 | 93 | -2 | 97 | 22 | 109 | 98 | 0 | 1 | -4 | 13 | 2 | 9 | 1 | inhibition [21]: 0%; inhibition [22]: 4%; inhibition [23]: -1%; inhibition [24]: -3%; inhibition [25]: 2%; inhibition [26]: 1%; inhibition [27]: 1%; inhibition [28]: 2%; inhibition [29]: 74%; inhibition [30]: 2%; inhibition [31]: 33%; inhibition [32]: 94%; inhibition [33]: 31%; inhibition [34]: 74%
CC(C)n1nc(C#Cc2cccc3cc(-c4cccc(C(F)(F)F)c4)ncc23)c2c(N)ncnc21 | 3 | 86 | 5 | 10 | -1 to 3 | 8 | -1 | 31 | -2 | 46 | 2 | 98 | 97 | 2 | 1 | -1 | -8 | 2 | -1 | -2 | inhibition [21]: 0%; inhibition [22]: 5%; inhibition [23]: 0%; inhibition [24]: 2%; inhibition [25]: 4%; inhibition [26]: 1%; inhibition [27]: 1%; inhibition [28]: -4%; inhibition [29]: 1%; inhibition [30]: 0%; inhibition [31]: -3%; inhibition [32]: 5%; inhibition [33]: 2%; inhibition [34]: 5%
